Measurements published in patent US20090264384A1, “INDOLE, BENZIMIDAZOLE, AND BENZOLACTAM BORONIC ACID COMPOUNDS, ANALOGS THEREOF AND METHODS OF USE THEREOF” (Nuada, Inc., priority 2004, published 2009).

Tests used:
[1] = test system: colitis provoked by trinitrobenzene sulphonic acid (TNBS); assay: Rat model of colitis provoked by TNBS, 3 days, treatment from Day −1 (CCI-7155, CCI-7156); format: in vivo; conditions: vs CMC group
Experimental: The effects of CCI-7155 and CCI-7156, were evaluated in the TNBS model at one and two oral dose levels, administered twice a day by gavage, treatment commencing 1 day prior to challenge. A low intracolonic concentration of TNBS (10 mg) was used, known to produce reproducible yet not unduly severe mucosal injury in the colon, determined 3 days after instillation. Colonic macroscopic injury has been assessed, as has colonic weight as a reflection of colonic oedema and wet/dry weight to determine colonic water content, along with determination of myeloperoxidase (MPO) activity (Bradley et al, 1982) as an index of white cell infiltration for the evaluation of tissue injury. In addition to the test compounds [CCI-7155 and CCI-7156], the actions of sulfasalazine, a well-established and currently used treatment has also been evaluated in this model.
TNBS Challenge—Male Wistar rats (230-280 g) were randomised into groups of 8-10 before commencement of the study. Food was withdrawn 18 h (overnight) before TNBS administration, but the rats were allowed free access to drinking water. On the morning of the day of challenge, Day 0, the rats were transiently anaesthetised with ether and TNBS (10 mg in 0.25 ml of 50% ethanol) was instilled approximately 6-8 cm into the colon using a soft plastic catheter inserted in the rat rectum. The rats were allowed to recover with free access to food and drinking water. At the end of the experiment, 72 h after TNBS administration (i.e. on the morning of Day 3, between 9.00 and 11.00), the distal colon was dissected, and the distal 8 cm photographed and stored appropriately for subsequent analyses.
The following primary parameters were measured in the main study: (a) macroscopic scoring of distal 8 cm of colon; (b) myeloperoxidase levels in segments of distal 8 cm of colon. In addition, the weight of the colonic segment was assessed as an indirect and non-specific marker of oedema, and this was supported by measurement of the wet/dry ratio as an index of water content. The body weight of the animals was also determined and expressed as % change from the day of challenge.
Treatments. All challenged groups were dosed orally twice daily from Day −1. The groups for study were:
The compounds were thus administered orally, twice daily and given on Day −b 1 before TNBS administration, on Day 0, the day of TNBS administration and on Day 1 and 2. Tissues were removed 72 h after TNBS administration (on Day3). Dosing was performed once in the morning (Between 9:00 and 11:00) and once in the late afternoon (between 18:00 and 20:00).
Preparation of Compound. CCI-7155 and CCI-7156 were suspended in 0.5% w/v carboxy methyl cellulose in sterile water, to produce a smooth suspension as instructed, and administered in a volume of 2 ml/kg (˜0.5 ml per rat per dose).
Preparation of Sulfasalazine. the Doses of Sulfasalazine Used in the Present study were derived from previously published work with this agent in the TNBS model (Boughton-Smith et al, 1988; Sykes et al, 1999; Galvez et al, 2000; Bobin-Dubigeon et al, 2001). Sulfasalazine was suspended in carboxy methyl cellulose (0.5% w/v in sterile water; Sigma Chemical Co, compound reference M-0262) and administered p.o. in a volume of 0.5 ml. In previous studies in these laboratories, this concentration of carboxy methyl cellulose (CMC) had no significant effect on the extent of colitis as determined by macroscopic injury and changes in inflammatory markers following TNBS challenge.
Macrocopic Injury. The distal 8 cm portion of the colon (measured from the rectum) was removed, opened longitudinally and gently rinsed with ice-cold phosphate buffer (PBS; pH 7.4), blotted, weighed (Scaltec, Germany) and photographed (Samsung, Digimax 340, digital camera). The tissue was then cut into longitudinal strips, each strip being thus 8 cm long and included the whole of the zone of injury. […]

[2] = test system: α1 (non-selective); assay: α1 (non-selective) binding assay; parameters: species or system rat; conditions: 1.0E−05 M
[3] = target: T1, B2(h) (Homo sapiens, UniProt P30411); assay: B2(h) binding assay; conditions: 1.0E−05 M; read-out: % Inhibition of Control Specific Binding
T1 construct: expressed in transfected cells; host or cells: CHO cells
T1 sequence (P30411 whole entry): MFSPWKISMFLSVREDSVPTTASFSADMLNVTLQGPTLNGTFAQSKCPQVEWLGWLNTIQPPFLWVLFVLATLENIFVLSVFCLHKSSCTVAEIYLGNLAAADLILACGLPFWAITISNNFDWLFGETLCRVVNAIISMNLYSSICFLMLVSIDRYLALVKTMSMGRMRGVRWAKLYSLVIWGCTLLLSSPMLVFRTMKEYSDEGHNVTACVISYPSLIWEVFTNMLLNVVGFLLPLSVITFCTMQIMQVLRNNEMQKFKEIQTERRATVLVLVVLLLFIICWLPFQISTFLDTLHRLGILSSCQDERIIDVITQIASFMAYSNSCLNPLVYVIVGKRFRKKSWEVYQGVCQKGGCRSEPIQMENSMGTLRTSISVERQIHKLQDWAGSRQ

[4] = test system: AMPA; assay: AMPA binding assay; parameters: species or system rat; conditions: 1.0E−05 M
[5] = target: T2, H1(h) (Homo sapiens, UniProt P35367); assay: biochemical; conditions: 1.0E−05 M; read-out: % Inhibition of Control Specific Binding
T2 construct: expressed in transfected cells; host or cells: HEK-293 cells
T2 sequence (P35367 whole entry): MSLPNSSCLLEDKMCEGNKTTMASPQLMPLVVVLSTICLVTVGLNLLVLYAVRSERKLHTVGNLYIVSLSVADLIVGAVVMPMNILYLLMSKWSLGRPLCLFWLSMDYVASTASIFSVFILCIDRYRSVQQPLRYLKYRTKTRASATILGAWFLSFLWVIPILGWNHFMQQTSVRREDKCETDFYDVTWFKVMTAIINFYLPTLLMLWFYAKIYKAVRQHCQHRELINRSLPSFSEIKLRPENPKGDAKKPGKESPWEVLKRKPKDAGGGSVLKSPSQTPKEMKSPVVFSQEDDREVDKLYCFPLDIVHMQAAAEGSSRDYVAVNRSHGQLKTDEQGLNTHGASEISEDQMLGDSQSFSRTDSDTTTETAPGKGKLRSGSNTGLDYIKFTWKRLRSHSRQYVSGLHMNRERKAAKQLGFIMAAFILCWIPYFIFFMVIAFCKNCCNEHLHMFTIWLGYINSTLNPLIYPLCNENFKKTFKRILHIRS

[6] = test system: I1 (peripheral); assay: I1 (peripheral) binding assay; parameters: species or system bovine; conditions: 1.0E−05 M
[7] = test system: M (non-selective); assay: M (non-selective) binding assay; parameters: species or system rat; conditions: 1.0E−05 M
[8] = target: T3, NK2(h) (Homo sapiens, UniProt P21452); assay: NK2(h) binding assay; conditions: 1.0E−05 M; read-out: % Inhibition of Control Specific Binding
T3 construct: expressed in transfected cells; host or cells: CHO cells
T3 sequence (P21452 whole entry): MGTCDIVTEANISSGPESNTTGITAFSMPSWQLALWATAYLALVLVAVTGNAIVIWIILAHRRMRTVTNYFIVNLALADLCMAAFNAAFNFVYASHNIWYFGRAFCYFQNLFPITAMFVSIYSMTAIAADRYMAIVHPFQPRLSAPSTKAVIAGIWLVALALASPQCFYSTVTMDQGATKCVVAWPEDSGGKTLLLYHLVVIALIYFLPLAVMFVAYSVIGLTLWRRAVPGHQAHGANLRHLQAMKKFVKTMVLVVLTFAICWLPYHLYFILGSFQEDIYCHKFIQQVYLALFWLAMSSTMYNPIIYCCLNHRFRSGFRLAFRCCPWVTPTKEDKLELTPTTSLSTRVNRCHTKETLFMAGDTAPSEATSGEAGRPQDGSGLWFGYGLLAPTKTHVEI

[9] = test system: Opiate (non-selective); assay: Opiate (non-selective) binding assay; parameters: species or system rat; conditions: 1.0E−05 M
[10] = target: T4, Estrogen(h) (ER) (Homo sapiens, UniProt P03372); assay: Estrogen(h) (ER) binding assay; conditions: 1.0E−05 M
T4 construct: Estrogen(h); MCF-7 cells; 17-β-estradiol; Sheen et al. (1985); endogenous in cells; host or cells: MCF-7 cells (cytosol)
T4 sequence (P03372 whole entry): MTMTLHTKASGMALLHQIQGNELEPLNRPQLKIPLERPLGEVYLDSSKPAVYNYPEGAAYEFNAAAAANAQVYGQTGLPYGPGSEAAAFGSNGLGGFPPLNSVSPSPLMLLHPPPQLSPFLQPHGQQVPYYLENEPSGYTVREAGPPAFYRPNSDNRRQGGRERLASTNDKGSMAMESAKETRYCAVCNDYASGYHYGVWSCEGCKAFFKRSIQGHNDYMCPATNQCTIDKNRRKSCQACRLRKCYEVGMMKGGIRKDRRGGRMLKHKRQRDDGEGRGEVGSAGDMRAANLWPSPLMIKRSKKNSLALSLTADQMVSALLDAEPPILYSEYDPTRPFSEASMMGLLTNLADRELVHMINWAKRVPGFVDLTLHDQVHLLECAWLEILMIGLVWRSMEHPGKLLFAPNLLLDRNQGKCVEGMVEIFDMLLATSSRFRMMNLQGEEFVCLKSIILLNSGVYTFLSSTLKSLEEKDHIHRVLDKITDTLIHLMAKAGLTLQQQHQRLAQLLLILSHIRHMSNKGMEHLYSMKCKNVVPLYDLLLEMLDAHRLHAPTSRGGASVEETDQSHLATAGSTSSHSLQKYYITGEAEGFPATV

[11] = target: T5, V1a(h) (Homo sapiens, UniProt P37288); assay: V1a(h) binding assay; conditions: 1.0E−05 M; read-out: % Inhibition of Control Specific Binding
T5 construct: expressed in transfected cells; host or cells: CHO cells
T5 sequence (P37288 whole entry): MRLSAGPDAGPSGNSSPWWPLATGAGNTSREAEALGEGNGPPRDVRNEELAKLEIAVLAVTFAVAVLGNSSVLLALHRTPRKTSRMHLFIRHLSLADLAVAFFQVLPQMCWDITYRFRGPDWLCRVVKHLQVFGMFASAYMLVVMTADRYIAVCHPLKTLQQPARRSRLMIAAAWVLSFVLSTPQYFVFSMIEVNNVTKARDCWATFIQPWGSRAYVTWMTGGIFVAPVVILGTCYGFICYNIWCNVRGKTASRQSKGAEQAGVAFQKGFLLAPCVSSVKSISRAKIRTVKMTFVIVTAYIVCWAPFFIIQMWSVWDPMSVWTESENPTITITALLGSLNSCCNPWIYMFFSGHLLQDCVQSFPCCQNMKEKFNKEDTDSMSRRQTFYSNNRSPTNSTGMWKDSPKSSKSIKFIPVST

[12] = test system: K^+V channel; assay: K^+V channel binding assay; parameters: species or system rat; conditions: 1.0E−05 M
[13] = test system: Cl-channel; assay: Cl-channel binding assay; parameters: species or system rat; conditions: 1.0E−05 M
[14] = test system: Protein kinase C; assay: Protein kinase C enzyme assay; format: biochemical, rat; conditions: 1.0E−05 M
[15] = 50 mg/kg/day p.o. in divided doses, 72 h after TNBS

| Compound | attenuation of TNBS-induced fall in body weight (% change in body weight at Day 0) ([1]; 50 mg/kg/day p.o. in divided doses b.i.d.) | reduction in area of macroscopic colonic injury [1, 15] | reduction in colon weight [1, 15] | reduction in colonic MPO levels [1, 15] | reduction in colonic water content (wet/dry weight) [1, 15] | % Inhibition of Control Specific Binding [2] | inhibition at 10 µM [3] | % Inhibition of Control Specific Binding [4] | inhibition at 10 µM [5] | % Inhibition of Control Specific Binding [6] | % Inhibition of Control Specific Binding [7] | inhibition at 10 µM [8] | % Inhibition of Control Specific Binding [9] | % Inhibition of Control Specific Binding [10] | inhibition at 10 µM [11] | % Inhibition of Control Specific Binding [12] | % Inhibition of Control Specific Binding [13] | % Inhibition of Control Values [14] |
| --- | --- | --- | --- | --- | --- | --- | --- | --- | --- | --- | --- | --- | --- | --- | --- | --- | --- | --- |
| O=C(O)c1cc(/N=N/c2ccc(S(=O)(=O)Nc3ccccn3)cc2)ccc1O [sulfasalazine, reference compound] | did not reach statistical significance | significantly (P<0.001) reduced the extent of macroscopic injury | significant reduction in colon weight was also not observed | significantly reduced the elevated colonic levels of MPO | significant reduction in colon weight was also not observed | – | – | – | – | – | – | – | – | – | – | – | – | – |
| N#Cc1ccc2c(ccn2CCCCCB(O)O)c1 [Example 20, 5-(5-cyano-1H-indol-1-yl)pentylboronic acid] | – | – | – | – | – | 21% | 18% | −3% | 6% | −6% | −4% | -2% | 20% | 3% | 24% | −5% | 26% | 0% |
